# Reference: patent US5116815A, “PF 1022 substance, method of treating helminthic parasitic infection and anthelmintic composition” (Meiji Seika Kaisha Ltd., priority 1989, dated 1992)
# “And” between values parts separate entries of the source, which are not always exact repeats. Equal entries are not always repeated.
# What was measured:
# [1] = tested on: hookworms (Ancylostoma caninum); assay: Anthelmintic effect on canine hookworms; format: in vivo; details: dog, single oral dose 5 mg/kg
# Procedure: (§1) The PF 1022 substance was evaluated for its anthelmintic effect in dogs by orally administering it to dogs found to be infected with roundworms (Toxocara canis), hookworms (Ancylostoma caninum) and whipworms (Trichuris vulpisl), respectively, by scatoscopy.
# The substance was orally administered once at the dose of 5 mg/kg to a dog infected with the roundworms or hookworms by admixing the substance with a small portion of the ordinary feed, and the worms eliminated and those remaining in the dog during 7 days following administration were counted.
# [2] = tested on: feline roundworms (Toxocara cati); assay: Anthelmintic activity against cat large intestinal roundworms; format: in vivo; details: cats
# Procedure: The PF 1022 substance was evaluated for its anthelmintic effect on feline roundworms (Toxocara cati) by orally administering the substance once to 12 cats found to be infected with the roundworms by scatoscopy.
# The infected cats were used in three groups of 4 animals and given 0.2 mg/kg, 1 mg/kg and 5 mg/kg of the substance, respectively, admixed as such with a small portion of ordinary feed. The observation items were the number of roundworms eliminated during the 7 day observation period following administration and the number of remaining roundworms as found upon autopsy performed 7 days after administration.
# [3] = tested on: digestive tract nematodes (Haemonchus controtus, Ostertaqia ostertagi, hairworms, cooperids, etc.); assay: Anthelmintic effect on bovine digestive tract nematodes (EPG); format: in vivo; details: cattle
# Procedure: The PF 1022 substance was evaluated for its anthelmintic effect on the so-called digestive tract nematodes parasitizing cattle by orally administering it to three head of cattle found to be infected with such nematodes (Haemonchus controtus, Ostertaqia ostertagi, hairworms, cooperids, etc.) by scatoscopy.
# The PF 1022 substance was administered either once at 5 mg/kg or for 2 days once daily at 12.5 mg/kg, in the form of a suspension in water, using a stomach catheter. Parasite eggs in feces (EPG) were counted daily for 3 days before administration and for 7 days following administration.
# Ames test = format: cell-based
# Solubility = format: physicochemical
# From the text: (11) Solubility: Soluble in methanol, ethyl acetate, acetone, chloroform and dimethyl sulfoxide; insoluble in water;
# mammalian cell = assay: Mammalian cell chromosomal aberration test; format: cell-based
# [4] = tested on: bovine twisted stomach worms (Haemonchus contortus); assay: In vitro test tube motility test on bovine twisted stomach worms; details: physiological salt solution, 39-40 C
# Procedure: The PF 1022 substance was evaluated for its anthelmintic activity by adding it to test tubes in which bovine twisted stomach worms (Haemonchus contortus) isolated from the bovine fourth stomach were swimming.
# A physiological salt solution was distributed into 4 test tubes and warmed to 39°-40° C. Three to five twisted stomachworms collected from the bovine fourth stomach were put into the medium in each test tube and allowed to swim therein. An appropriate amount of the PF 1022 substance was dissolved in a small amount of dimethyl sulfoxide and the solution was added dropwise to the medium and, after stirring for admixing, the behavior of each worm was observed. The amount of the PF 1022 substance was adjusted so that the final concentrations in the culture medium in three tubes amounted to 2 ppm, 8 ppm and 40 ppm, respectively. Dimethyl sulfoxide alone was added dropwise to the remaining test tube, which served as a control.
# [5] = tested on: whipworms (Trichuris vulpisl); assay: Anthelmintic effect on canine whipworms; format: in vivo; details: dog; for whipworms eliminated / whipworms remaining: 7 days
# Procedure: as §1
# Thus, the elimination was 100% in both cases. On the other hand, one of two dogs infected with the above-mentioned whipworms was given orally one single dose of 5 mg/kg and the other 10 mg/kg, and the worms eliminated and those remaining uneliminated during 7 days following administration were counted. […] At 10 mg/kg, 22 whipworms were eliminated while none were found remaining uneliminated. Thus, the elimination was 100%.
# [6] = tested on: small intestinal hairworms (Trichostrongylus colubriformis); assay: Sheep digestive tract nematodes, worms remaining in the intestinal tract; format: in vivo; details: for Number of worms remaining in At autopsy: autopsy 7 days after administration, mean of 6 animals
# Procedure: The PF 1022 substance was evaluated for its anthelmintic effect in sheep mixedly infected with fourth stomachworms (Ostertaqia circumcincta) and small intestinal hairworms (Trichostrongylus colubriformis) by administering it orally to 24 sheep artificially infected with said two worm species.
# The infected sheep were divided into 4 groups of 6 animals, which were respectively given 1 mg/kg, 5 mg/kg, 10 mg/kg and 0 mg/kg (control) of the substance suspended in 0.5% CMC, via a stomach catheter. The observation items were the number of parasite eggs per gram of feces (EPG) before administration, the EPG 7 days after administration, and the number of worms remaining in the fourth stomach and that of worms remaining in the intestinal tract as found upon autopsy 7 days after administration.
# Each numerical value given is the mean of 6 animals.
structure (smiles),measurement,setting,value
CC(C)C[C@H]1C(=O)O[C@H](Cc2ccccc2)C(=O)N(C)[C@@H](CC(C)C)C(=O)O[C@H](C)C(=O)N(C)[C@@H](CC(C)C)C(=O)O[C@H](Cc2ccccc2)C(=O)N(C)[C@@H](CC(C)C)C(=O)O[C@H](C)C(=O)N1C [PF 1022 substance],elimination,[1],100%
same,hookworms eliminated,[1]; 7 days,Twelve
same,hookworms remaining,[1]; 7 days,no hookworms were found remaining
same,% Elimination,"[2]; single oral dose 0.2 mg/kg, 0.2 mg/kg",100% and 50.0%
same,% Elimination,"[2]; single oral dose 1 mg/kg, 1 mg/kg",100% and 80.0%
same,% Elimination,[2]; single oral dose 5 mg/kg,100%
same,Number of remaining worms,"[2]; single oral dose 5 mg/kg, autopsy 7 days",0
same,EPG relative to that found before administration,"[3]; 2 day administration at 12.5 mg/kg, day after the second day of administration",about half
same,EPG,"[3]; oral 5.0 mg/kg x 1, Day 0 (day of first administration)",34
same,EPG,"[3]; oral 5.0 mg/kg x 1, Day 1",44
same,EPG,"[3]; oral 5.0 mg/kg x 1, Day 2",61
same,EPG,"[3]; oral 5.0 mg/kg x 1, Day 3",18
same,EPG,"[3]; oral 5.0 mg/kg x 1, Day 4",30
same,EPG,"[3]; oral 5.0 mg/kg x 1, Day 5",6
same,EPG,"[3]; oral 5.0 mg/kg x 1, Day 6",27
same,EPG,"[3]; oral 5.0 mg/kg x 1, Day 7",7
same,EPG,"[3]; oral 5.0 mg/kg x 1, Day -1 (before administration)",34
same,EPG,"[3]; oral 5.0 mg/kg x 1, Day -2 (before administration)",32
same,EPG,"[3]; oral 5.0 mg/kg x 1, Day -3 (before administration)",30
same,EPG,"[3]; oral 12.5 mg/kg x 2, Day 0 (day of first administration), 12.5 mg/kg",112 and 64
same,EPG,"[3]; oral 12.5 mg/kg x 2, Day 2, 12.5 mg/kg",26 and 30
same,EPG,"[3]; oral 12.5 mg/kg x 2, Day 3, 12.5 mg/kg",34 and 41
same,EPG,"[3]; oral 12.5 mg/kg x 2, Day 4, 12.5 mg/kg",41 and 29
same,EPG,"[3]; oral 12.5 mg/kg x 2, Day 5, 12.5 mg/kg",41 and 34
same,EPG,"[3]; oral 12.5 mg/kg x 2, Day 6, 12.5 mg/kg",42 and 40
same,EPG,"[3]; oral 12.5 mg/kg x 2, Day 7, 12.5 mg/kg",49 and 36
same,EPG,"[3]; oral 12.5 mg/kg x 2, Day -1 (before administration), 12.5 mg/kg",109 and 67
same,EPG,"[3]; oral 12.5 mg/kg x 2, Day -2 (before administration), 12.5 mg/kg",109 and 58
same,EPG,"[3]; oral 12.5 mg/kg x 2, Day -3 (before administration), 12.5 mg/kg",91 and 58
same,Ames test result,Ames test,negative
same,Solubility,"Solubility; methanol, ethyl acetate, acetone, chloroform and dimethyl sulfoxide",Soluble
same,Solubility,Solubility; water,insoluble
same,mammalian cell chromosomal aberration test result,mammalian cell,negative
same,time until the worms stopped moving,[4]; 2 ppm,25 min
same,time until the worms stopped moving,[4]; 8 ppm,15 min
same,time until the worms stopped moving,[4]; 40 ppm,10 min
same,percent elimination,[5]; single oral dose 5 mg/kg,39.4%
same,whipworms eliminated,[5]; single oral dose 5 mg/kg,327
same,whipworms remaining,[5]; single oral dose 5 mg/kg,504
same,elimination,[5]; single oral dose 10 mg/kg,100%
same,whipworms eliminated,[5]; single oral dose 10 mg/kg,22
same,whipworms remaining,[5]; single oral dose 10 mg/kg,none
same,Number of worms remaining in At autopsy,[6]; oral 1 mg/kg,8750
same,Number of worms remaining in At autopsy,[6]; oral 5 mg/kg,8317
same,number of worms remaining in the intestinal tract relative to the control infected group,[6]; oral 10 mg/kg,about half
same,Number of worms remaining in At autopsy,[6]; oral 10 mg/kg,5333
